This note sets out measurements from paper PMC8470881, “Membrane Interactions of Latarcins: Antimicrobial Peptides from Spider Venom” (International Journal of Molecular Sciences, 2021).

No end group written: not given here.

For data set [1], the system named is Bacillus subtilis subsp. spizizenii (DSM 347), Staphylococcus xylosus (DSM 20267), Escherichia coli (DSM 1116), Acinetobacter sp. (DSM 586). Conditions: for MIC: irrespective of the bacterial strain (all four strains), Müller-Hinton medium, 20 h at 37 °C, maximum tested 256 µg/mL. As for the experimental part:
The effect of latarcins against four types of bacteria was determined using a minimum inhibitory concentration (MIC) assay on two Gram-positive strains (Bacillus subtilis subsp. spizizenii and Staphylococcus xylosus) and two Gram-negative strains (Escherichia coli and Acinetobacter sp.). Although the antimicrobial activity of latarcins is well documented, these experiments served to ensure that all studies were performed on molecules that show the expected antimicrobial activity.
The minimum inhibitory concentration (MIC) was determined as previously reported. For each latarcin, MIC was determined against two Gram-positive strains, namely Bacillus subtilis subsp. spizizenii (DSM 347) and Staphylococcus xylosus (DSM 20267), and two Gram-negative strains: Escherichia coli (DSM 1116) and Acinetobacter sp. (DSM 586). Bacterial cultures were grown in Müller-Hinton medium (MHM) as described previously, and peptides were dissolved in sterile water containing 10% DMSO. The stock solution of peptides with 1024 µg/mL was prepared such that serial dilutions of peptides (from 256 µg/mL to 2 µg/mL) in MHM were prepared in 96-well plates with the penultimate column without peptide to act as positive control (no peptide) and the final column as negative control (no bacteria). Bacterial stock suspension was made with an OD of 0.2 units at 550 nm. This stock solution was further diluted (1:1000 for Gram-negative bacteria and 1:100 for Gram-positive bacteria), and subsequently, 50 µL of the resulting bacterial suspension was added to the wells except the final well to give a final concentration of 10^6 colony-forming units per mL. Afterwards, the 96-well plates were incubated at 37 °C for 20 h, and cellular respiration was detected by adding 20 µL of resazurin solution (200 µg/mL) for an additional 2 h at the same temperature.

For the next data set, the system named is human red blood cells. Briefly: Hemolysis assay. Conditions: peptide concentration 128 µg/mL, 30 min, 37 °C. As for the experimental part:
A hemolysis assay was performed to determine the activity of latarcins against human red blood cells, allowing us to compare the results to those of previous experiments in which rabbit erythrocytes were used. The activity was determined for each latarcin as a function of increasing concentration, up to a maximum of 256 µg of peptides per mL. […] The percentage hemolysis of the other peptides was determined at the highest tested concentration of 256 µg/mL.
The influence of latarcins on human erythrocytes was determined by using a hemolysis assay modified from previously published methods. Blood was obtained from the blood bank of the local hospital in Karlsruhe and stabilized with citrate phosphate dextrose buffer. Erythrocyte suspension (5 mL) was taken up in Tris buffer (45 mL, 172 mM, pH 7.6) at room temperature, gently mixed, and centrifuged (1500 rpm, 10 min). The supernatant solution was removed, and Tris wash was repeated twice with 45 mL as above. The washed erythrocytes (1 mL) were suspended in 9 mL Tris buffer to make the stock cell suspension, which was then further diluted to 0.25% (v/v) at 37 °C before use. Peptide stock solutions were prepared with 1024 µg/mL in Tris buffer containing 10% DMSO, and serial dilutions were prepared in the range of 512 µg/mL to 2 µg/mL as described previously. For the positive control, Triton X-100 (200 µL of 0.2% v/v) was used, and as the negative control, Tris buffer (200 µL, 172 mM) was used. Erythrocyte stock cell suspension (200 µL) was added to each of the samples and incubated for 30 min at 37 °C with gentle shaking before determining the percentage of hemolysis as described previously.

A short description of data set [2]: Solid-state 15N-NMR (helix alignment in membrane). It counts as physicochemical. Conditions: DMPC/DMPG (7/3), P/L = 1:100, oriented samples, solid-state 15N-NMR, 308 K. As for the experimental part: While OCD provides a rough picture of the peptide alignment, the helix tilt angle can be measured rather precisely by solid-state NMR using the same type of oriented membrane sample. […] If the peptides are not helical, then the orientation cannot be determined from these ^15N-NMR spectra (which is why CD/OCD need to be performed first), but other information may be available. Oriented NMR samples were prepared at a P/L of 1/100 in DMPC/DMPG (7/3), as for CD/OCD. The ^15N-NMR spectra of all latarcins are summarized in Figure 7, along with the corresponding ^31P-NMR spectra of the phospholipid component. […] This conclusion is supported by the vesicle leakage data above.
Ltc2a, with a chemical shift of 131 ppm, on the other hand, is distinctly tilted in the membrane, as was also observed in the OCD experiments. […] Ltc3a, with a chemical shift of 93 ppm, is tilted only slightly by 10–20°. […] Given that OCD had shown distinct signs of aggregation into β-sheets, we can conclude that Ltc6a binds to the membrane and perturbs the lipid bilayer, but it is not possible to determine the molecular alignment of Ltc6a when it has most likely formed aggregates.
Macroscopically oriented NMR samples were prepared by co-dissolving appropriate amounts of peptides and lipids (in 300 μL methanol, 100 μL CHCl3, and 10–20 μL Milli-Q water) and spreading them onto 23 thin glass plates of dimensions 9 mm × 7.5 mm × 0.08 mm (Marienfeld Laboratory Glassware, Lauda-Königshofen, Germany). The peptide-to-lipid ratio (P/L) is given in mol/mol. The plates were dried in air for 1 h, followed by drying under vacuum overnight. The plates were stacked and placed into a hydration chamber with 96% relative humidity at 48 °C for 18–24 h before wrapping the stack in parafilm and plastic foil for the NMR measurements. All solid-state NMR measurements were carried out on a Bruker Avance 500 MHz spectrometer (Bruker Biospin, Karlsruhe, Germany) at 308 K, as previously reported. The oriented membrane samples were placed in the flat-coil probe such that the lipid bilayer normal was aligned parallel to the magnetic field. ^31P-NMR was used to check the quality of the lipid orientation in the samples, using a Hahn echo sequence with phase cycling. The 90° pulse length was 3.9 µs, the echo time was 30 µs, and 17 kHz ^1H SPINAL64 decoupling was used. ^1H-^15N cross-polarization experiments using a CP-MOIST pulse sequence were performed using a double-tuned probe with a low-E flat-coil resonator (3 mm × 9 mm cross-section), employing a ^1H and ^15N radiofrequency field strength of 65 kHz during the cross-polarization and 25 kHz ^1H SPINAL16 [41] decoupling during acquisition. A mixing time of 500 μs was used, and 10,000 to 30,000 scans were accumulated. The acquisition time was 10 ms, and the recycle time was 3 s. The ^15N chemical shift was referenced using the ^1H-NMR signal of water in the sample.

Data set [3] can be described thus: Circular dichroism spectroscopy (secondary structure). It counts as physicochemical. Conditions: CD in DMPC/DMPG (7/3) SUVs, P/L = 1:50, 10 mM phosphate buffer pH 7.0, 30 °C, peptide 29.3 μM; deconvolution with CDSSTR, CONTIN-LL, SELCON-3. The source says: Next, we compared the secondary structure of the full set of latarcins in the presence of lipid membranes, for which there are no complete data available yet.
The CD line shapes (Figure 2) were deconvoluted to estimate the secondary structure contributions (Supplementary Table S1) using the CDSSTR, CONTIN-LL, and SELCON-3 algorithms provided on the DICHROWEB online server as described previously. […] In peptides containing a high proportion of aromatic residues, such shifts of the long-wavelength band are well documented.
Small unilamellar vesicles (SUVs) for the CD measurements were prepared as follows. Weighed amounts of the lipid powders (DMPC, DMPG) were dissolved in chloroform/methanol 1/1 (v/v) to obtain 5 mg/mL stock solutions. For obtaining mixed DMPC/DMPG liposomes (7/3 molar ratio), the appropriate aliquots of these stock solutions were pipetted in a glass vial and thoroughly vortexed. The organic solvents were removed under a gentle stream of nitrogen gas, followed by 3 h of vacuum pumping in an exsiccator at a reduced pressure of 3-4 mbars to remove solvent residuals from the lipid film that had formed in the vial. The lipid film was dispersed by the addition of 10 mM phosphate buffer (PB) pH 7.0 and homogenized by vigorously vortexing for 10 × 1 min and 10 freeze–thaw cycles. SUVs were formed by sonication of the obtained multilamellar vesicles for 16 min in a strong ultrasonic bath (UTR 200, Hielscher, Germany). The temperature of the water in the ultrasonic bath was adjusted to 35 °C by circulating it through a thermostat to avoid overheating the samples. A weighed amount of the corresponding peptide was dissolved in water resulting in stock solutions with a peptide concentration of 0.5 mg/mL. For the final CD samples, each peptide stock solution was diluted to 29.3 μM and the corresponding lipid dispersion to 1.47 mM in 10 mM PB, resulting in a peptide-to-lipid (P/L) ratio of 1/50.
[…] The samples were measured in a 1-millimeter path length quartz glass cell (Suprasil, Hellma Müllheim, Germany) between 260 and 185 nm at 0.5 nm intervals. Spectra of the liposome samples were recorded at 30 °C, i.e., well above the phase transition temperature of the lipids, using a water-thermostated rectangular cell holder. Three repeat scans at a scan rate of 10 nm min^−1, 8 s response time, and 1 nm bandwidth were averaged for each sample, and the baseline spectrum of the respective peptide-free sample was subtracted from the sample spectrum. CD spectra were smoothened by a Savitzky-Golay filter (convolution width of 15 data points), which is implemented in the Jasco Spectra Analysis software.
For orientation: CD spectra are sensitive to the conformation of chiral molecules.

Data set [4] in a line: Oriented circular dichroism (helix alignment in membrane). Type of data set: physicochemical. Conditions: DMPC/DMPG (7/3), P/L = 1:100, oriented hydrated bilayers, 30 °C.
Description: This is the same lipid composition and peptide-to-lipid ratio as was used in conventional CD above (see Figure 2), but in contrast to the vesicular samples containing excess water, the oriented membranes for OCD are just about saturated with water.
The sign and intensity of the 208 nm band provide a characteristic signature of the helix tilt angle in the membrane [19]. For a helical peptide that lies flat on the bilayer surface, this band is the most intense.
To prepare oriented CD (OCD) samples, latarcins depending on their solubility were dissolved either in pure MeOH or CHCl3/MeOH 1/1 (v/v) and thoroughly mixed with appropriate aliquots of DMPC/DMPG solutions (7/3 molar ratio) in the same solvent. Each co-dissolved mixture with a peptide-to-lipid molar ratio of 1/100 was deposited on a quartz glass plate using a gas-tight syringe. To achieve a spot size of 12.5 mm on the 20 mm diameter plates (Suprasil QS, Hellma Optik GmbH, Jena, Germany), a volume of ~55–60 µL was used. The organic solvents were evaporated in a gentle stream of air until the sample appeared dry. The amounts of deposited lipid and peptide on the plate were always 0.29 μmole and 2.9 nmole, respectively. The peptide-lipid-film was further dried under reduced pressure for at least 3 h. Afterwards, each plate with the dried sample was fixed and sealed by a polymer O-ring in a cylindrical sample holder. The plate with the sample and a second window plate without the sample formed a compartment for controlled hydration. The holder was assembled in a custom-built hydration cell. In the inner compartment of the sample holder, the peptide-lipid film was hydrated for about 15 h at 30 °C and 97% relative humidity via the gas phase by a saturated K2SO4 solution contained in an adjacent cavity of the hydration cell. During hydration, the lipids spontaneously align as lipid bilayers that are macroscopically oriented perpendicular to the glass surface. For the measurement, the holder was transferred to an OCD sample cell that had been developed and built in-house [20]. It is computer-controlled and can be integrated into a Jasco spectropolarimeter as an accessory. The optical path runs along the cylindrical axis of the cell, i.e., normal to the quartz glass plate surface carrying the oriented lipid film. To reduce possible spectral artifacts caused by linear dichroism (LD) or linear birefringence (LB) due to imperfections in the sample, strain in the quartz glass or imperfect alignment of the windows, the OCD spectra were recorded in steps of 45° by rotation of the cell around the beam axis [19, 20]. At each angle, two scans were recorded from 260–185 nm as an average, using a scan rate of 20 nm min^−1, 4 s response time, and 1 nm bandwidth.

Consider GLFGKLIKKFGRKAISYAVKKARGKH [Ltc2a], for which the MIC result in data set [1] is “below 4 µg/mL”. Also, in the data set with human red blood cells, the “% Hemolysis” value is recorded as 100%.

As for H-SMWSGMWRRKLKKLRNALKKKLKGE-OH [Ltc1], the “NMR: orientational state of the helix” value in data set [2] is given as “Surface”. Moreover, the MIC result in data set [1] is “below 4 µg/mL”. Moreover, the “MIC (relative antimicrobial activity)” value in data set [1] (relative activity over two Gram-positive and two Gram-negative strains) is on record as “+++”. The “% Helix (CD)” value in data set [3] amounted to 66%. Besides, the “OCD: orientational state of the helix” value in data set [4] was “Surface”.
